Laboratory results: article PMC12133982, “Predominant T-cell epitopes of SARS-CoV-2 restricted by multiple prevalent HLA-B and HLA-C allotypes in Northeast Asia” (Frontiers in Immunology, 2025)
Peptide text beside a SMILES is read from it.

How the values were obtained:
[1] = biological target: HLA-B1302 (Homo sapiens, UniProt P01889, A65T/A93T/A95T/D138N/D201E/D98Y/E176V/E204Q/E69M/E70A/G107R/K202T/L105A/L119W/N104T/N87E/Q94N/R106L/R155S/R169L/R180L/S101N/S121T/S35A/S48T/V127L/V36M/Y140L/Y91S); test: Competitive peptide binding assay, CIR-B1302; details: HMy2.CIR-B1302 cells, reference Cy5-MMWYWGPSL, class from inhibition at 5 and 15 μM, flow cytometry MFI; read-out: Binding affinity with HLA-B1302
Method: (§1) Then, competitive peptide binding assays were performed.

[2] = biological target: HLA-B1502 (Homo sapiens, UniProt P01889, A329T/A93T/A95T/C349S/D201E/D98Y/E187L/E204Q/E69M/E70A/H137Y/K202T/L119I/Q94N/R155S/R180L/S121R/S35A/S48A/T118I/V306I/V36M/Y140S/Y91S); test: Competitive peptide binding assay, CIR-B1502; details: HMy2.CIR-B1502 cells, reference Cy5-[…], class from inhibition at 5 and 15 μM, flow cytometry MFI; read-out: Binding affinity with HLA-B1502
Method: as §1

[3] = biological target: HLA-B3501 (Homo sapiens, UniProt P01889, A329T/A93T/A95T/C349S/D201E/D98Y/E176V/E187L/E204Q/E69T/I218V/K202T/L119I/Q94N/R155S/R180L/S121R/S35A/S48A/T118I/V127L/V306I/V36M/Y140S/Y91F); test: Competitive peptide binding assay, CIR-B3501; details: HMy2.CIR-B3501 cells, reference Cy5-[…], class from inhibition at 5 and 15 μM, flow cytometry MFI; read-out: Binding affinity with HLA-B3501
Method: as §1

[4] = biological target: HLA-B1501 (Homo sapiens, UniProt P01889, A329T/A93T/A95T/C349S/D201E/D98Y/E187L/E204Q/E69M/E70A/K202T/N87E/Q94N/R155S/R180W/S121R/S35A/S48A/V306I/V36M/Y140S/Y91S); test: Competitive peptide binding assay, CIR-B1501; details: HMy2.CIR-B1501 cells, reference Cy5-[…], class from inhibition at 5 and 15 μM, flow cytometry MFI; read-out: Binding affinity with HLA-B1501
Method: as §1

[5] = biological target: HLA-B5801 (Homo sapiens, UniProt P01889, A329T/C349S/D201E/D98Y/E176V/E187L/E204Q/E69T/G107R/I218V/I90N/K202T/L105A/L119I/N104I/N87E/Q89R/Q94S/R106L/R155S/R180L/R86G/S101N/S121R/S35A/S48A/T118I/V127L/V306I/V36M/Y140S/Y91M); test: Competitive peptide binding assay, CIR-B5801; details: HMy2.CIR-B5801 cells, reference Cy5-[…], class from inhibition at 5 and 15 μM, flow cytometry MFI; read-out: Binding affinity with HLA-B5801
Method: as §1

[6] = biological target: HLA-B4601 (Homo sapiens, UniProt P01889, A329T/A93R/C349S/D201E/E100V/E187L/E204Q/E69M/E70A/I90K/K202T/N87E/R155S/R180W/S121R/S35A/S48A/V306I/V36M/Y140S); test: Competitive peptide binding assay, CIR-B4601; details: for IC50: HMy2.CIR-B4601 cells, reference Cy5-[…], class from inhibition at 5 and 15 μM, flow cytometry MFI, read-out: Binding affinity with HLA-B4601
Method: as §1

[7] = biological target: HLA-B1301 (Homo sapiens, UniProt P01889, A65T/A93T/A95T/D138N/D201E/D98Y/E176V/E204Q/E69M/E70A/G107R/K202T/L105A/L119I/N104T/N87E/Q94N/R106L/R155S/R169L/R180L/S101N/S121R/S35A/S48T/T118I/V127L/V36M/Y140L/Y91S); test: Competitive peptide binding assay, CIR-B1301; details: HMy2.CIR-B1301 cells, reference Cy5-[…], class from inhibition at 5 and 15 μM, flow cytometry MFI; read-out: Binding affinity with HLA-B1301
Method: as §1

SMILES	IC50 [1] [µM]	IC50 [2] [µM]	IC50 [3] [µM]	IC50 [4] [µM]	IC50 [5] [µM]	IC50 [6] [µM]	IC50 [7] [µM]	inhibition at 5 µM ([6]; read-out: Inhibition % of Cy5-reference peptide binding, CIR-B4601, 5μM peptide) [%]	inhibition at 15 µM ([6]; read-out: Inhibition % of Cy5-reference peptide binding, CIR-B4601, 15μM peptide) [%]
CC[C@H](C)[C@H](NC(=O)[C@H](CC(C)C)NC(=O)[C@@H](N)CCC(=O)O)C(=O)N[C@@H](CCCNC(=N)N)C(=O)N[C@@H](CCC(N)=O)C(=O)NCC(=O)N[C@H](C(=O)N[C@@H](CC(=O)O)C(=O)N[C@@H](Cc1ccc(O)cc1)C(=O)O)[C@@H](C)O [Epitope Y162] (H-ELIRQGTDY-OH; N-terminus and C-terminus assumed)	> 15	5 to 15	> 15	> 15	5 to 15	< 5			
CC(C)C[C@H](NC(=O)[C@@H](N)CCC(N)=O)C(=O)N[C@H](C(=O)N1CCC[C@H]1C(=O)N[C@H](C(=O)N[C@@H](Cc1c[nH]c2ccccc12)C(=O)N[C@@H](CCCNC(=N)N)C(=O)N[C@H](C(=O)N[C@@H](Cc1ccc(O)cc1)C(=O)O)C(C)C)[C@@H](C)O)[C@@H](C)O [Epitope Y175] (H-QLTPTWRVY-OH; N-terminus and C-terminus assumed)		5 to 15	> 15	> 15	< 5		> 15		
CC[C@H](C)[C@H](NC(=O)[C@@H](NC(=O)[C@H](CCC(=O)O)NC(=O)[C@H](CCC(=O)O)NC(=O)[C@@H](N)Cc1c[nH]cn1)[C@@H](C)O)C(=O)N[C@@H](Cc1ccc(O)cc1)C(=O)N[C@@H](CC(N)=O)C(=O)N[C@@H](CC(C)C)C(=O)N[C@@H](CC(C)C)C(=O)O [Epitope Y199] (H-HEETIYNLL-OH; N-terminus and C-terminus assumed)	5 to 15		< 5		5 to 15	> 15		24.9	44.1
C[C@@H](O)[C@H](NC(=O)CNC(=O)[C@H](CCC(N)=O)NC(=O)[C@@H](N)CCCNC(=N)N)C(=O)N[C@@H](CC(=O)O)C(=O)N[C@@H](Cc1ccc(O)cc1)C(=O)N[C@@H](CCCCN)C(=O)N[C@@H](Cc1c[nH]cn1)C(=O)N[C@@H](Cc1c[nH]c2ccccc12)C(=O)O [Epitope Y222] (H-RQGTDYKHW-OH; N-terminus and C-terminus assumed)	> 15			5 to 15					
CC(C)C[C@H](NC(=O)[C@H](CC(=O)O)NC(=O)[C@H](CCC(N)=O)NC(=O)[C@@H](NC(=O)[C@@H](N)CO)[C@@H](C)O)C(=O)N[C@@H](Cc1ccccc1)C(=O)N[C@@H](CC(C)C)C(=O)N1CCC[C@H]1C(=O)N[C@@H](Cc1ccccc1)C(=O)O [Epitope Y249] (H-STQDLFLPF-OH; N-terminus and C-terminus assumed)	> 15			5 to 15			> 15		
CC(C)[C@H](NC(=O)[C@@H](N)Cc1ccccc1)C(=O)N[C@@H](CO)C(=O)N[C@@H](CC(N)=O)C(=O)NCC(=O)N[C@H](C(=O)N[C@@H](Cc1c[nH]cn1)C(=O)N[C@@H](Cc1c[nH]c2ccccc12)C(=O)N[C@@H](Cc1ccccc1)C(=O)O)[C@@H](C)O [Epitope Y250] (H-FVSNGTHWF-OH; N-terminus and C-terminus assumed)	> 15	> 15	> 15	> 15					
CC(C)[C@H](NC(=O)CNC(=O)[C@H](Cc1c[nH]cn1)NC(=O)[C@@H]1CCCN1C(=O)[C@H](C)NC(=O)[C@H](CO)NC(=O)[C@H](CCC(N)=O)NC(=O)[C@@H]1CCCN1C(=O)[C@@H](N)Cc1ccccc1)C(=O)O [Epitope Y281] (H-FPQSAPHGV-OH; N-terminus and C-terminus assumed)	> 15	> 15		5 to 15			> 15		
CC[C@H](C)[C@H](N)C(=O)N[C@@H](C)C(=O)N[C@@H](CC(N)=O)C(=O)N[C@@H](CCC(N)=O)C(=O)N[C@@H](Cc1ccccc1)C(=O)N[C@@H](CC(N)=O)C(=O)N[C@@H](CO)C(=O)N[C@@H](C)C(=O)N[C@H](C(=O)O)[C@@H](C)CC [Epitope Y283] (H-IANQFNSAI-OH; N-terminus and C-terminus assumed)		> 15		5 to 15			> 15		
